# Assays:
# Type in all cases: functional
# [1] = test system: Mycobacterium tuberculosis; assay: Growth inhibition of Mycobacterium tuberculosis H37Ra Lehmann and Neumann ATCC 25177 harboring pSMT1 luciferase reporter at 10 uM after 6 days by luminescence based serial dilution method relative to control; settings: H37Ra Lehmann and Neumann ATCC 25177, 144 h, read-out: GI
# [2] = test system: Mycobacterium tuberculosis; assay: Growth inhibition of Mycobacterium tuberculosis H37Ra Lehmann and Neumann ATCC 25177 harboring pSMT1 luciferase reporter at 1 uM after 6 days by luminescence based serial dilution method relative to control; settings: H37Ra Lehmann and Neumann ATCC 25177, 144 h, read-out: GI
# [3] = test system: Mycobacterium tuberculosis; assay: Growth inhibition of Mycobacterium tuberculosis H37Ra Lehmann and Neumann ATCC 25177 harboring pSMT1 luciferase reporter at 0.1 uM after 6 days by luminescence based serial dilution method relative to control; settings: H37Ra Lehmann and Neumann ATCC 25177, 144 h, read-out: GI
# [4] = test system: Mycobacterium tuberculosis; assay: Antimycobacterial activity against Mycobacterium tuberculosis H37Ra Lehmann and Neumann ATCC 25177 harboring pSMT1 luciferase reporter after 6 days by luminescence based serial dilution method; settings: H37Ra Lehmann and Neumann ATCC 25177, 144 h
Compound,inhibition of growth at 10 µM [1],inhibition of growth at 1 µM [2],inhibition of growth at 0.1 µM [3],MIC90 [4]
CC(=O)Oc1cc(=O)[nH]c2ccccc12,35.4%,21.1%,14.5%,
O=c1c(-c2ccccc2)c(O)c2ccccc2n1-c1ccccc1,98.3%,53.7%,30.1%,6.4 µM
Cn1c(=O)c(-c2ccccc2)c(O)c2ccccc21,87.2%,49.5%,29.8%,
Oc1nc2ccccc2c(O)c1Cc1ccccc1,53.5%,40.2%,7.5%,
CCCc1c(O)c2ccccc2n(-c2ccccc2)c1=O,56.6%,46.3%,10.4%,
CCn1c(=O)c(-c2ccccc2)c(O)c2ccccc21,8.2%,0%,0%,
COc1cccc2c(O)c(-c3ccccc3)c(O)nc12,95%,47.5%,42.5%,7.9 µM
Cc1c(O)c2ccccc2n(-c2ccccc2)c1=O,74.5%,48.5%,36%,
Oc1nc2ccccc2c(O)c1-c1ccccc1,92.4%,59.2%,56%,8.5 µM
CC(=O)Oc1c(-c2ccccc2)c(=O)[nH]c2ccc(F)cc12,99.2%,38%,31%,3.8 µM
CCc1c(O)c2cc(OC)ccc2[nH]c1=O,68.2%,56.3%,0%,
Cc1cc2[nH]c(=O)c(-c3ccccc3)c(O)c2cc1C,90.7%,48.3%,32.5%,9.2 µM
CCc1c(OC(C)=O)c2ccc(OC)cc2[nH]c1=O,28.6%,15.3%,0%,
CCc1c(O)c2ccccc2n(-c2ccccc2)c1=O,25.6%,34.8%,22.5%,
CCc1c(O)c2ccc(O)cc2[nH]c1=O,49.4%,34.3%,25.6%,
CCc1c(OC(C)=O)c2cccc(OC)c2[nH]c1=O,31.2%,13.3%,0%,
O=c1c(Cc2ccccc2)c(O)c2ccccc2n1Cc1ccccc1,49.5%,38.8%,24.8%,
COc1ccc2[nH]c(=O)c(-c3ccccc3)c(OC(C)=O)c2c1,79.6%,43.2%,22.5%,
CCc1c(OC(C)=O)c2ccccc2[nH]c1=O,29.4%,9.4%,3.5%,
COc1cccc2c(OC(C)=O)c(-c3ccccc3)c(=O)[nH]c12,76.3%,32.5%,8.9%,
O=c1[nH]c2c(O)cccc2c(O)c1-c1ccccc1,95.3%,67.1%,60%,8.3 µM
CCc1c(O)c2ccc(OC)cc2[nH]c1=O,60.8%,36%,23.7%,
O=c1[nH]c2ccc(F)cc2c(O)c1-c1ccccc1,99.5%,42.6%,35.1%,3.2 µM
CCCCc1c(O)c2ccccc2n(-c2ccccc2)c1=O,47.3%,46.3%,34.4%,
CCc1c(O)c2cc(F)ccc2[nH]c1=O,57.3%,51.3%,40%,
CCc1c(O)c2c(C)ccc(C)c2[nH]c1=O,86.2%,46.4%,16.9%,
CCc1c(O)c2ccccc2[nH]c1=O,98.6%,78.2%,59.2%,

Compound,inhibition of growth at 10 µM [1],inhibition of growth at 1 µM [2],inhibition of growth at 0.1 µM [3],MIC90 [4]
COc1ccc2[nH]c(=O)c(-c3ccccc3)c(O)c2c1,90.8%,24.5%,9.4%,8.7 µM
CCCCc1c(O)c2ccccc2n(C)c1=O,23.9%,10.5%,0%,
CCCCc1c(O)c2cc(OC)cc(OC)c2[nH]c1=O,62.6%,10.7%,0%,
O=c1[nH]c2ccc(O)cc2c(O)c1-c1ccccc1,95.1%,52.1%,32.3%,8.3 µM
CCCCc1c(O)c2c(Cl)ccc(C)c2[nH]c1=O,59.1%,38.7%,30%,
Cc1ccc2[nH]c(=O)c(-c3ccccc3)c(O)c2c1,92.3%,51.2%,36.2%,8 µM
O=c1c(Cc2ccccc2)c(O)c2ccccc2n1-c1ccccc1,56.3%,54.7%,20.3%,
CCc1c(OC(C)=O)c2cc(F)ccc2[nH]c1=O,44.5%,14%,0%,
CCc1c(O)c2cccc(OC)c2[nH]c1=O,71%,66.4%,65.8%,
Cc1c(O)c2ccccc2[nH]c1=O,55.5%,46.6%,43.6%,6.8 µM
COc1ccc2c(OC(C)=O)c(-c3ccccc3)c(=O)[nH]c2c1,81.2%,39.7%,20.9%,
CCc1c(O)c2c(Cl)ccc(C)c2[nH]c1=O,55.1%,48.8%,33.3%,
O=c1[nH]c2cc(O)ccc2c(O)c1-c1ccccc1,96.3%,61.7%,53.7%,8.2 µM
CCCc1c(O)c2cc(F)ccc2[nH]c1=O,78.2%,38.5%,13.2%,
COc1ccc2c(O)c(-c3ccccc3)c(=O)[nH]c2c1,98.2%,74.4%,56.5%,9.1 µM
CCCCc1c(O)c2cc(Cl)ccc2[nH]c1=O,64.8%,35.4%,21.6%,
Cc1c(O)c2ccccc2n(C)c1=O,83.8%,32.9%,4%,
O=c1c(-c2ccccc2)c(O)c2ccccc2n1Cc1ccccc1,71.5%,42.4%,31.2%,
CCc1c(OC(C)=O)c2cc(OC)ccc2[nH]c1=O,27.8%,10.1%,0%,
CCCCc1c(O)c2ccccc2n(Cc2ccccc2)c1=O,33.2%,25.3%,20.9%,
CC(=O)Oc1c(-c2ccccc2)c(=O)[nH]c2ccccc12,72.3%,35.4%,10.9%,
CC(=O)Oc1c(C)c(=O)[nH]c2ccccc12,45.2%,31.8%,19.2%,
CC(C)c1c(O)c2ccccc2[nH]c1=O,69.3%,47.4%,42.5%,
CC12CCC(c3c(O)c(-c4ccccc4)c(=O)n(-c4ccccc4)c31)C2(C)C (racemic),12.5%,8.1%,0%,
CCCCc1c(O)c2c(n(-c3ccccc3)c1=O)C1(C)CCC2C1(C)C (racemic),7.5%,1.2%,0%,
NNC(=O)c1ccncc1 [ISONIAZID],,,,0.3 µM
CO[C@H]1/C=C/O[C@@]2(C)Oc3c(C)c(O)c4c(O)c(c(/C=N/N5CCN(C)CC5)c(O)c4c3C2=O)NC(=O)/C(C)=C\C=C\[C@H](C)[C@H](O)[C@@H](C)[C@@H](O)[C@@H](C)[C@H](OC(C)=O)[C@@H]1C [RIFAMPIN],,,,0.1 µM

# Reference: ChEMBL document CHEMBL4118082 (Eur J Med Chem, 2017)
